Each structure is given as a SMILES string. Non-standard residues stand in square brackets, D forms with d. Residues, ends and D or L forms follow the SMILES beside them. Aha = [N-]=[N+]=NCC[C@H](N)C(=O)O

A short description of this series: Water solubility of hydrophobic peptide and its linker cleavage fragments. The class given is physicochemical. The method, then: In order to enhance solubility of this peptide a variant was prepared in which a cleavable N-terminal poly-lysine tag was synthesized after the peptide sequence and incorporated cleavable linker 1: H-KKKKK—(linker 1) AhaGISFSIRFAIWIRFG-NH2 (10) (SEQ. ID. No: 3). Synthesis and purification of this modified peptide proceeded smoothly according to example 3 (FIG. 2B). Pure peptide 10 was dissolved in a 0.05 M aqueous NaHCO3 solution and shaken for 2 h at r.t. (FIG. 2A). The cleavage reaction released the two peptides 11 and 12: While the poly-lysine tag 11 is water soluble, peptide 12 precipitated under the reaction conditions and could be easily isolated in high purity by centrifugation. • FIG. 2B: LC-MS of H-KKKKK (linker 1)-AhaGISFSIRFAIWIRFG-NH2 (10), MS (ESI): 545.4 [M+5H]^5+, 681.6 [M+4H]^4+, 908.3 [M+3H]^3+, 1362.0 [M+2H]^2+. • FIG. 2C: MS (ESI) of insoluble peptide 12 (MS (ESI): 661.5 [M+3H]^3+, 991.3 [M+2H]^2+, 1322.0 […], 1983.1 [M+H]^+).

Take `CC[C@H](C)[C@H](NC(=O)CNC(=O)[C@@H](N)CCN=[N+]=[N-])C(=O)N[C@@H](CO)C(=O)N[C@@H](Cc1ccccc1)C(=O)N[C@@H](CO)C(=O)N[C@H](C(=O)N[C@@H](CCCNC(=N)N)C(=O)N[C@@H](Cc1ccccc1)C(=O)N[C@@H](C)C(=O)N[C@H](C(=O)N[C@@H](Cc1c[nH]c2ccccc12)C(=O)N[C@H](C(=O)N[C@@H](CCCNC(=N)N)C(=O)N[C@@H](Cc1ccccc1)C(=O)NCC(N)=O)[C@@H](C)CC)[C@@H](C)CC)[C@@H](C)CC` [H-AhaGISFSIRFAIWIRFG-NH2] (H-[Aha]GISFSIRFAIWIRFG-NH2): the solubility in water result is recorded as “insoluble in water”.

Source of the values: US11548911B2, “Cleavable linker for peptide synthesis” (ROCHE SEQUENCING SOLUTIONS, INC., priority 2018, dated 2023).
